Experimental findings from patent publication US7943795B2, “Vitamin D receptor modulators” (Eli Lilly and Company, priority 2004, dated 2011) are described below.

The IC50 is the concentration that gives 50% inhibition.

For this assay, the system named is IL-10 production in PBMCs. In words: IL-10 induction assay. The class given is cell-based. The conditions noted are these: PBMC; TPA/PHA stimulated human PBMCs, IL-10 in supernatant by immunoassay. The source says: 7. The IL-10 induction assay is described in the “Assay” section of the Description, infra.
The IL-10 Induction Assay
This is an in vitro efficacy assay for psoriasis, abscess and adhesion. Psoriasis involves both keratinocytes and immune cells. IL-10 is a unique cytokine because it is anti-inflammatory and immunosuppressive. This assay tells us whether a VDRM is able to function as an agonist in PBMCs (primary blood mononuclear cells) or not. A lower EC50 value is desirable in this assay since a compound with a lower EC50 value will be a better agonist in PBMCs. An acceptable test result is an EC50 value of less than 200 nM. Preferred assay results are EC50 values of less than 100 nM.
Isolation of Peripheral Blood Mononuclear Cells (PBMCs):
Collect 50 ml of human blood and dilute with media, RPMI-1640. Add diluted blood to sterile tubes with ficol. Centrifuge the tubes. Discard the top layer and collect the cells from middle layer. Divide all cells into four tubes and add media. Centrifuge. Aspirate off media and resuspend the cells. Collect all cells. Centrifuge at 1200 rpm for 10 m. Resuspend the cells in RPMI-1640 with 2% FBS and then count cells.
Stimulation of PBMC: Prepare TPA in DMSO. Dissolve PHA in water. Plate TPA/PHA treated PBMCs in well plates. Incubate the cells.
Treatment: Prepare all compound dilutions in plain RPMI-1640 media. Add diluted compound and incubate. Sample Collection and assay: Remove all the cells by centrifugation and assay the supernatant for IL-10 by immunoassay using anti-human IL-10 antibody coated beads, as described by the manufacturer (Linco Research Inc., St. Charles, Mo.).

With `CCC(CC)(c1ccc(OCC(=O)C(C)(C)C)c(C)c1)c1ccc2cc(C(=O)O)ccc2c1` [Ex. 1, 6-{1-[4-(3,3-dimethyl-2-oxobutoxy)-3-methylphenyl]-1-ethylpropyl}naphthalene-2-carboxylic acid], the IC50 amounted to 76 nM.

Turning to `CCC(CC)(c1ccc(OCC(=O)C(C)(C)C)c(C)c1)c1ccc2cc(C(=O)N(C)CC(=O)O)ccc2c1` [Ex. 5, [(6-{1-[4-(3,3-Dimethyl-2-oxobutoxy)-3-methylphenyl]-1-ethylpropyl}naphthalene-2-carbonyl)methylamino]acetic acid], the IC50 was 5 nM.
